Assay results from PMC6535779, “A Specific, Glycomimetic Langerin Ligand for Human Langerhans Cell Targeting” (ACS Central Science, 2019).

Biological target: T1, DC-SIGN CRD (Homo sapiens, UniProt Q9NNX6)
T1 construct: with the DC-SIGN CRD were performed at a receptor concentration of 50 μM; made in house
T1 sequence (Q9NNX6 263-378 limits assumed): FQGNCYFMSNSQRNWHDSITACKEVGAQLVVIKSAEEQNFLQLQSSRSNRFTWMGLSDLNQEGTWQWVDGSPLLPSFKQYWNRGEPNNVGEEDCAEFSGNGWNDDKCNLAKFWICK
Test: 19F R2-filtered NMR reporter displacement assay with DC-SIGN
Type: binding
Settings: for Ki: 19F R2-filtered NMR, DC-SIGN CRD, pH 7.0, 25 °C; for specificity: Table 1, Langerin against DC-SIGN
Description: Figure S7. 19F R2-filtered NMR assay development with DC-SIGN. […]
substantial line broadeni ng. This phenomenon was utilized to develop the 19F R2-filtered NMR reporter displacement assay following the procedure previously published for Langerin 3. The spectrum in absence of DC -SIGN is processed with an exponential apodization function at 1.8 Hz. b. The interaction between 24 and DC-SIGN was quantified via the transversal relaxation rate R2,obs using the CPMG pulse sequence4-5. Representative decay curves in the presence of DC-SIGN are shown. c. The Ca2+-dependency of the interaction was validated via addition of EDTA. The R2,obs value in absence of DC-SIGN was determined from four independent experiments. The standard error for the experiments in presence of DC-SIGN and EDTA is derived directly from the fitting procedure. d. Relaxation dispersion experiments for 24 in presence of DC-SIGN indicate at negligible exchange contribution R2,ex at a νCPMG value of 500 Hz. In contrast to Langerin, a considerable exchange contribution is observed a lower νCPMG values. e. A representative binding isotherm for the affinity determination for 24 is shown. The KD value was determined from three independent titrations. The obtained K D and additional parameters from the fitting procedure are given in Tab le S3.
(1 picture or pasted object on this page, not shown here)
Receptor Expression and Purification
General remarks. Codon-optimized genes for the expression of Langerin and DC-SIGN in E. coli were purchased from GenScript and Life Technologies, respectively. All growth media or chemicals used for receptor expression and purification were purchased from Carl Roth if not stated otherwise. […]
Langerin and DC-SIGN carbohydrate recognition domain. Expression and purification were conducted as previously published14. Briefly, the monomeric 15N-labeled Langerin and DC-SIGN carbohydrate recognition domains (CRDs) were expressed insolubly in E. coli BL21* (DE3) (Invitrogen). Following enzymatic cell lysis, inclusion bodies were harvested and subsequently solubilized. The sample was centrifuged and the Langerin and DC-SIGN CRDs were refolded overnight via rapid dilution. Next, the sample was dialyzed overnight, centrifuged and purified via StrepTactin affinity chromatography (Iba). After an additional dialysis step overnight, the sample was centrifuged and the buffer was exchanged to 25 mM HEPES with 150 mM NaCl at pH 7.0 using 7 kDa size-exclusion desalting columns (Thermo Scientific) for 19F R2-filtered and 15N HSQC NMR experiments. The concentration of Langerin and DC -SIGN CRDs was determined via UV spectroscopy (A280, 0.1% = 3.19 and A280, 0.1% = 2.98). Purity and monodispersity of Langerin and DC - SIGN CRD samples were analyzed via SDS PAGE and DLS.
General remarks. 19F R2-filtered NMR experiments were conducted on a PremiumCompact 600 MHz spectrometer (Agilent). Spectra were processed in MestReNova and data analysis was performed with OriginPro 13, 15. Experiments with the Langerin ECD were performed at a receptor concentration of 50 μM in 25 mM Tris with 10% D2O, 150 mM NaCl and 5 mM CaCl2 at pH 7.8 and 25° C. Experiments […]
with the DC-SIGN CRD were performed at a receptor concentration of 50 μM in 25 mM HEPES with 10% D2O, 150 mM NaCl and 5 mM CaCl2 at pH 7.0 and 25°C. TFA served as an internal reference at a concentration of 50 μM. Apparent relaxation rates R2,obs for the reporter ligand were determined using the CPMG pulse sequence as previously published3-5.
Assay development for DC-SIGN. The 19F R2-filtered NMR reporter displacement assay for DC-SIGN was developed following the procedure previously published for Langerin3. Briefly, the KD value and the relaxation rate in bound state R2,b were determined at five concentrations [L]T of reporter ligand 24 in three independent titration experiments. Samples were prepared via serial dilution. The addition of 10 mM EDTA served to validate the Ca2+-dependency of the interaction between DC-SIGN and the reporter ligand. […]

Row | SMILES | Ki [mM] | specificity (from KI values) | specificity for DC-SIGN over Langerin (from KI values) [fold] | specificity for Langerin against DC-SIGN (from KI values) [fold]
1 | CC(=O)NCCO[C@H]1O[C@H](CO)[C@@H](O)[C@H](O)[C@@H]1O [compound 21] | 2.7 ± 0.3 | 0.27 | 3.7 | –
2 | CC(=O)NCCO[C@@H]1O[C@H](CO)[C@@H](O)[C@H](O)[C@H]1NS(=O)(=O)c1ccc(C)cc1 [compound 16] | 15 ± 3 | 63 | – | 63
3 | Cc1ccc(S(=O)(=O)N[C@H]2C(O)O[C@H](CO)[C@@H](O)[C@@H]2O)cc1 (some centres unmarked) [compound 2] | 17 ± 1 | 53 | – | –
